The values that follow are results of earlier work, collected in US20080114046A1, “Pharmaceutical Combination of Angiotensin II Antagonists and Angiotensin I Converting Enzyme Inhibitors” (Boehringer Ingelheim International GmbH, priority 2002, published 2008).

For data set [1] the following is noted: HOPE study, treatment with ACE inhibitor ramipril.
The conditions of data set [2]: normotensive patients with diabetic nephropathy; losartan added to enalapril.
The conditions of data set [3]: first clinical trials.

For the compound `CCOC(=O)[C@H](CCc1ccccc1)N[C@@H](C)C(=O)N1[C@H](C(=O)O)C[C@@H]2CCC[C@@H]21` [ramipril], the “reduction of the risk of the combined primary cardiovascular outcome” value in data set [1] is listed as 22%. Regarding `CCCCc1nc(Cl)c(CO)n1Cc1ccc(-c2ccccc2-c2nn[nH]n2)cc1` [losartan], the “antiproteinuric effect of enalapril” value in data set [2] is reported as “potentiated”. Besides, the renoprotective effect result in data set [3] is listed as “renoprotective effect”. For the compound `CCCCC1=NC2(CCCC2)C(=O)N1Cc1ccc(-c2ccccc2-c2nnn[nH]2)cc1` [irbesartan], the renoprotective effect result in data set [3] was “renoprotective effect”.
